From the NIST ThermoML archive (doi:10.1016/j.fluid.2007.09.001)
Numbers after ± are expanded uncertainties.

Assays:
[1] = Liquid; Ebulliometric method (Recirculating still)
[2] = refractive index (Na D-line) (dimensionless); conditions: 293.15 K; 101.33 kPa; Liquid; Standard Abbe refractometry

Structure (SMILES)	Normal boiling temperature [1]	refractive index [2]
CCCCO [butan-1-ol]	116.97 ± 0.5 °C	1.3993 ± 0.0021
CCOC(C)=O [ethyl acetate]	77.09 ± 0.5 °C	1.3701 ± 0.0021
CC(O)C(C)O (stereo not drawn) [2,3-butanediol]	181.06 ± 0.5 °C	1.4375 ± 0.0021
CCCCOC(C)=O [butyl ethanoate]	125.96 ± 0.5 °C	1.3941 ± 0.0021
